The nature of data set [1]: Rat pharmacokinetics, oral dosing. The data set is classed as in vivo, Sprague-Dawley rats. Particulars: male, Sprague-Dawley, oral dosing at 3 mg/kg, plasma; for half-life: read-out: Rat T1/2.
In data set [2] the target is T1, human GLP-1R receptor (Homo sapiens, UniProt P43220).
T1 construct: expressed in transfected cells
Nature of the data set: GLP-1R low expression cell assay (cAMP TR-FRET, CHO-K1_hGLP-1Rlow_clone10 cells). The data set is classed as cell-based. Particulars: for EC50: cAMP TR-FRET, 30 min at 25° C.; for Emax: maximum activation relative to control GLP-1 peptide agonist. The procedure, abridged: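 Readout is cAMP TR-FRET after 30 min compound stimulation at 25 °C of a low-GLP-1R-expressing CHO-K1 clone (1,000 cells/well), with 10-point 3-fold serial dilutions. Percent activation versus a control GLP-1 peptide, from duplicates, was Hill-fitted to give EC50.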
(TR-FRET usually uses a lanthanide donor and a delayed reading to cut background.)

As a reminder, the AUC is concentration integrated over time. What is called Cmax is the maximum level reached in the sampled fluid or tissue. A word on the bioavailability: it is dose-corrected exposure relative to a reference, in per cent. Read a high bioavailability as good availability. As usually defined, the EC50 is the concentration giving half of the maximal effect. Low values mean higher potency in that assay, high ones lower potency in that assay. For orientation: Emax means the maximal effect, on the per cent scale that the assay sets.

T1 sequence (P43220 24-463): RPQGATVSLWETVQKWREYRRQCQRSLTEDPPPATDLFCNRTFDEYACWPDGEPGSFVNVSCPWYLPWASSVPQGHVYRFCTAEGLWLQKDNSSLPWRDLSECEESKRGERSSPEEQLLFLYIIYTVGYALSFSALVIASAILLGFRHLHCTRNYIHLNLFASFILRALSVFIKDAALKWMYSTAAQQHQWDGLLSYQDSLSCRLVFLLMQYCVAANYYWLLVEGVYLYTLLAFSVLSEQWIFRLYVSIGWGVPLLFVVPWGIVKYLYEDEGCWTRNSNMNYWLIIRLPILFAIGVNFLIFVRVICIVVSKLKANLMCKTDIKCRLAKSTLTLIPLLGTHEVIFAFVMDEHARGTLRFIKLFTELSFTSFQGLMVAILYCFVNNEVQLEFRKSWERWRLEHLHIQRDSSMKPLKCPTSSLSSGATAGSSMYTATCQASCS

On to `Cn1c(N(C)[C@H]2CC[C@H](c3cccc(OCc4ccc(C#N)cc4F)n3)CC2)nc2c(OC(F)F)cc(C(=O)O)cc21` [Compound 133, 2-(((1r,4r)-4-(6-((4-Cyano-2-fluorobenzyl)oxy)pyridin-2-yl)cyclohexyl)(methyl)amino)-4-(difluoromethoxy)-1-methyl-1H-benzo[d]imidazole-6-carboxylic acid], for which, in data set [1], the AUC fell in the range of 500 to 2500 ng·h/mL, the peak concentration (Cmax) is 500 to 1000 ng/mL, the half-life was in the range of 90 to 150 min and the bioavailability is 25 to 50%. In data set [2], this compound displayed an EC50 of less than 10 nM and an Emax greater than 85%.
Regarding `[2H]C([2H])([2H])Oc1cc(C(=O)O)cc2c1nc(CN1CCC(c3cccc(OCc4ccc(Cl)cc4F)n3)CC1)n2C` [Compound 207, 2-((4-(6-((4-chloro-2-fluorobenzyl)oxy)pyridin-2-yl)piperidin-1-yl)methyl)-4-(methoxy-d3)-1-methyl-1H-benzo[d]imidazole-6-carboxylic acid], in data set [1], the Cmax was greater than 5000 ng/mL, the half-life is 90 to 150 min and the bioavailability fell in the range of 50 to 85%. In data set [2], this compound returned an EC50 of less than 10 nM and a maximum response (Emax) greater than 85%.
As for `COc1cc(C(=O)O)cc2c1nc(CN1CCC(c3cccc(OCc4ccc(C#N)cc4F)n3)CC1)n2C` [Compound 308, 2-((4-(6-((4-Cyano-2-fluorobenzyl)oxy)pyridin-2-yl)piperidin-1-yl)methyl)-4-methoxy-1-methyl-1H-benzo[d]imidazole-6-carboxylic acid], in data set [1], the AUC fell in the range of 2500 to 10000 ng·h/mL, the maximum concentration (Cmax) was 1000 to 2000 ng/mL, the half-life is 90 to 150 min and the bioavailability is 50 to 85%. In data set [2], the EC50 was less than 10 nM and the Emax is greater than 85%.
`C[C@]1(c2ccc(Cl)cn2)Oc2cccc(C3CCN(Cc4nc5c(OCC6COC6)cc(C(=O)O)cc5n4C[C@@H]4CCO4)CC3)c2O1` [Compound 77, 2-((4-((S)-2-(5-chloropyridin-2-yl)-2-methylbenzo[d][1,3]dioxol-4-yl)piperidin-1-yl)methyl)-1-(((S)-oxetan-2-yl)methyl)-4-(oxetan-3-ylmethoxy)-1H-benzo[d]imidazole-6-carboxylic acid]: in data set [1], the AUC was less than 500 ng·h/mL, the Cmax was less than 500 ng/mL and the bioavailability was less than 25%. Also, in data set [2], the EC50 is less than 10 nM and the Emax was greater than 85%.
With `Cn1c(CN2CCC(c3cccc4c3OC(c3ccc(Cl)cc3F)C=C4)CC2)nc2c(OC(F)F)cc(C(=O)O)cc21` (single isomer, unassigned) [Compound 176], in data set [1], the AUC is 500 to 2500 ng·h/mL, the Cmax was less than 500 ng/mL, the half-life was less than 90 min and the bioavailability is 25 to 50%. Besides, the EC50 in data set [2] fell in the range of 100 to 1000 nM.
In the case of `Cn1c(CN2CCC(c3ccc(F)c(OCc4ccc(C#N)cc4F)n3)CC2)nc2c(OC(F)F)cc(C(=O)O)cc21` [Compound 137, 2-((4-(6-((4-Cyano-2-fluorobenzyl)oxy)-5-fluoropyridin-2-yl)piperidin-1-yl)methyl)-4-(difluoromethoxy)-1-methyl-1H-benzo[d]imidazole-6-carboxylic acid], in data set [1], the AUC lay in the range of 2500 to 10000 ng·h/mL, the Cmax is greater than 5000 ng/mL, the half-life was 90 to 150 min and the bioavailability was greater than 85%. In addition, in data set [2], the EC50 is 10 to 100 nM and the Emax was greater than 85%.

Values taken from US20240368120A1 (Terns Pharmaceuticals, Inc., priority 2023, published 2024).
